# Source: patent US9290496B2, “Purine derivatives” (PFIZER INC., priority 2013, dated 2016)
# Structures can show the parent of a compound that is named as a salt.
# Key:
# Format in all cases: cell-based
# [1] = biological target: T1, EGFR wildtype, endogenous (A549) (Homo sapiens, UniProt P00533); assay: pEGFR Y1068 ELISA assay, A549 cells; settings: inhibition of phosphorylation of EGFR at Tyr1068; A549 NSCLC cells; 2 hr compound incubation, then stimulated 10 min with EGF (40 ng/mL)
# T1 construct: A549 (EGFR wildtype, endogenous); host or cells: A549 (stimulated with EGF)
# T1 sequence (P00533 25-1210): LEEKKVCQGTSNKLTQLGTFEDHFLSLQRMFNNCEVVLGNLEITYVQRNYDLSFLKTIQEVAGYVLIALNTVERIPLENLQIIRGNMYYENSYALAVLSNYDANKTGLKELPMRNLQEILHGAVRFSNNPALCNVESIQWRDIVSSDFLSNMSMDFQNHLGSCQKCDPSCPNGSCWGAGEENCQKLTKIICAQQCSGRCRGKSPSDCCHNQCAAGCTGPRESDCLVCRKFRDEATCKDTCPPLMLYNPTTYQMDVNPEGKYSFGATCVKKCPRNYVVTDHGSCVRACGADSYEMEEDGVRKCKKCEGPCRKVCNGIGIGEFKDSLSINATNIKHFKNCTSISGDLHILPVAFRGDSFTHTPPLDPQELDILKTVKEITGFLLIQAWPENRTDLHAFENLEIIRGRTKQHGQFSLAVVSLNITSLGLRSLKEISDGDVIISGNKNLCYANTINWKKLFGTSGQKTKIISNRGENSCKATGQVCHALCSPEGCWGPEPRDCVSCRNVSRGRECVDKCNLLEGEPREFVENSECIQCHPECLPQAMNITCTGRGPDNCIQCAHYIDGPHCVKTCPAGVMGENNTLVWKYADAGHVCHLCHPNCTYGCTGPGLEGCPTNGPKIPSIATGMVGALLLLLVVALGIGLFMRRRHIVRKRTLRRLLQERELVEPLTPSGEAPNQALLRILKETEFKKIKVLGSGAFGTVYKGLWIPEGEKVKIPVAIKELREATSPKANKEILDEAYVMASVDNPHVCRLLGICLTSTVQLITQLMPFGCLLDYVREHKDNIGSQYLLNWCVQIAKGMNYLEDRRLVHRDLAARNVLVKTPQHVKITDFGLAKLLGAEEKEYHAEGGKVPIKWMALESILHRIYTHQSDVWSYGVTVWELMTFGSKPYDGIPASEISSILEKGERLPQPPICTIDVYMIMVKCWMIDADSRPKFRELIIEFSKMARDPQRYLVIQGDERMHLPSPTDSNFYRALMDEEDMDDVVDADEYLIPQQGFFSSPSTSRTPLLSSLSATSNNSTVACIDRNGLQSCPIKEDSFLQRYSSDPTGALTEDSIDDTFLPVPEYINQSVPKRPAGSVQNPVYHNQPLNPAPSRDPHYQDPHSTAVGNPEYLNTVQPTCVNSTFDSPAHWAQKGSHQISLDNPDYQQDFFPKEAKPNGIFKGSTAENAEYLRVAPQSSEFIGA
# [2] = biological target: T2, EGFR L858R+T790M, endogenous (NCI-H1975) (Homo sapiens, UniProt P00533, L858R/T790M); assay: pEGFR Y1068 ELISA assay, NCI-H1975 cells; settings: inhibition of phosphorylation of EGFR at Tyr1068; NCI-H1975 NSCLC cells; 2 hr compound incubation
# T2 construct: NCI-H1975 (EGFR L858R+T790M, endogenous); host or cells: NCI-H1975
# T2 sequence (P00533 25-1210 T790M/L858R): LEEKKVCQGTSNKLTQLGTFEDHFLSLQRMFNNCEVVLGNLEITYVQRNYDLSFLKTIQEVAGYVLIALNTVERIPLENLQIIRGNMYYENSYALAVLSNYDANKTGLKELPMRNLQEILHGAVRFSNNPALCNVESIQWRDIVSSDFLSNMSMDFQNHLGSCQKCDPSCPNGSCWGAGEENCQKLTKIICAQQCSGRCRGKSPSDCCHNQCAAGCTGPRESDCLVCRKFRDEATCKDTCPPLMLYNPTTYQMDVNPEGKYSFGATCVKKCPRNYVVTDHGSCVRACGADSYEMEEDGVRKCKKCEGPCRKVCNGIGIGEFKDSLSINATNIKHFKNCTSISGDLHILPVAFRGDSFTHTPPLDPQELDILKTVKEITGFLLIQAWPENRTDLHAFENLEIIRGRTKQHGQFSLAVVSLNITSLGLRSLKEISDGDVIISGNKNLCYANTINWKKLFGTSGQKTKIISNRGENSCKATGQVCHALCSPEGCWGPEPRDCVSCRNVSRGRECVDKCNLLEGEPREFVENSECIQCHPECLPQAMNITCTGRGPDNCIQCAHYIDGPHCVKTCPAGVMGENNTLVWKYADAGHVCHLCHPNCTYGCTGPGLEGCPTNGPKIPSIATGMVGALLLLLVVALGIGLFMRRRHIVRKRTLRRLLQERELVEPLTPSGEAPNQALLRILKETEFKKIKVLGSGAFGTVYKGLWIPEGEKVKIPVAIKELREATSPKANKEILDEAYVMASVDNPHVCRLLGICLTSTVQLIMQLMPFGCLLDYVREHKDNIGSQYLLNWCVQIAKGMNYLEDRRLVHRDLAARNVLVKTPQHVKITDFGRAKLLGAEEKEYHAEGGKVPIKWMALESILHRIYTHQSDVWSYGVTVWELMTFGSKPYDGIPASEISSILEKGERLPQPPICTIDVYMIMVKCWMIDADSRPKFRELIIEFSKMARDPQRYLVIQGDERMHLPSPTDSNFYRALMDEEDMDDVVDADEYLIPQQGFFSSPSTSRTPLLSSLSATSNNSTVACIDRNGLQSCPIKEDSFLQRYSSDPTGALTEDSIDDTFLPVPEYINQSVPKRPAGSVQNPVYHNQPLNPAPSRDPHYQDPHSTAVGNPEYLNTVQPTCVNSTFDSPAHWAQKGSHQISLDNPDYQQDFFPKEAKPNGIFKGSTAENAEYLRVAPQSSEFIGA
# [3] = biological target: T3, EGFR del/T790M (PC9-DRH) (Homo sapiens, UniProt P00533, DEL746-750/T790M); assay: pEGFR Y1068 ELISA assay, PC9-DRH cells; settings: inhibition of phosphorylation of EGFR at Tyr1068; PC9-DRH cells (dacomitinib resistant); 2 hr compound incubation
# T3 construct: detects endogenous levels of phospho-EGF Receptor (Tyr1068) protein; endogenous in cells; host or cells: PC9-DRH (dacomitinib-resistant derivative of PC9, generated in house)
# T3 sequence (P00533 with tags, fused parts or gaps DEL746-750/T790M): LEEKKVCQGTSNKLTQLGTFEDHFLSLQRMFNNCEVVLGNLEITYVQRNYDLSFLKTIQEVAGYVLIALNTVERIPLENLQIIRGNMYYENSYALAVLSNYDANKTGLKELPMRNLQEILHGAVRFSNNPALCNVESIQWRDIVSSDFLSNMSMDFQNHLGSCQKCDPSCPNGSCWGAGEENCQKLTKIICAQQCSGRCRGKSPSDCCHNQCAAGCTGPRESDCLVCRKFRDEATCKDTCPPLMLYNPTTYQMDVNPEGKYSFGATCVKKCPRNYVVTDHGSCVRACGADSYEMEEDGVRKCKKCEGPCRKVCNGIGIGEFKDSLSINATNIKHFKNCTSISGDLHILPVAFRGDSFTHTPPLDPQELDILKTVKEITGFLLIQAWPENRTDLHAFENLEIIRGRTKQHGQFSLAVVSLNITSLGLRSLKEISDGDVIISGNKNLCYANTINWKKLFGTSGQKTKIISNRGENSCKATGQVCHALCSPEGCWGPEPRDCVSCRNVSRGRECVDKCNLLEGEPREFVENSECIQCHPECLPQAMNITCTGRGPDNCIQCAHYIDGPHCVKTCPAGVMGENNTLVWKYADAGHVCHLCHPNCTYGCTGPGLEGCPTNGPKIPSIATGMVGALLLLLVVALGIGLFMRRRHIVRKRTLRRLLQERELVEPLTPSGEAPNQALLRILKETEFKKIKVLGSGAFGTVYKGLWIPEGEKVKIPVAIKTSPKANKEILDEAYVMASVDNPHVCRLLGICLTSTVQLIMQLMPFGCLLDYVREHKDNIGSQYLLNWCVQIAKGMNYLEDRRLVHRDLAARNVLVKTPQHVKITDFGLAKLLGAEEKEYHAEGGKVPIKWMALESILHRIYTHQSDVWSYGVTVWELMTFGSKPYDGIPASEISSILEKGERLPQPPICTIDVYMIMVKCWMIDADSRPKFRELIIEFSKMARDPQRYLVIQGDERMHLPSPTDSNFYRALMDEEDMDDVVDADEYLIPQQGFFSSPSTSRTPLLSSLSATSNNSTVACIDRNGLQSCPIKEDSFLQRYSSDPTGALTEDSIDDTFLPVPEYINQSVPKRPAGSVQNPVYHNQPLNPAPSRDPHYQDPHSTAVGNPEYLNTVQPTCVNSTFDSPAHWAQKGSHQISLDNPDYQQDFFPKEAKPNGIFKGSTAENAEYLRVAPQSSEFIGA
# Protocol: The PathScan® Phospho-EGF Receptor (Tyr1068) Sandwich ELISA Kit is a solid phase sandwich enzyme-linked immunosorbent assay (ELISA) that detects endogenous levels of phospho-EGF Receptor (Tyr1068) protein. […] NCI-H3255 cells were licensed from NCI. […] All cells were cultured according to ATCC recommendations. A549, NCI-H1975, PC9, and NCI-H3255 cells were grown in RPMI media (Invitrogen, Carlsbad, Calif.) supplemented with 10% FBS (Sigma, St Louis, Mo.), and with 1% Penn/Strep (Invitrogen).
# Each compound was prepared as a DMSO stock solution (10 mM). Compounds were tested in duplicate on each plate, with an 11-point serial dilution curve (1:3 dilution). Compound treatment (50 μL) was added from the compound dilution plate to the cell plate. […] Plates were then incubated for 2 hr at 37° C., 5% CO2. […] The wash was then flicked off and ice-cold lysis buffer was added to the cells (50 μL/well). The plate was shaken for 20-30 min at 4° C. to completely lyse the cells. Sample diluent (50 μL/well) was added to the ELISA plate, and the lysate (50 μL) was diluted into the sample diluent in each well of the ELISA plate. Plates were sealed and incubated overnight at 4° C. with shaking. The next day, wells were washed four times with 1× Wash Buffer; plates were taped on lint-free paper after the final wash prior to adding Add Detection Antibody (green, 100 μL/well) to each well and incubating for 1 hr at 37° C. After incubation, wells were washed as described. HRP-Linked secondary antibody (red, 100 μL/well) was added to each well and incubated for 30 min at 37° C. After incubation, the wells were washed as described. TMB Substrate (100 μL/well) was added to each well and the plate incubated for 10 min at 37° C. or 30 min at rt maximum. Stop Solution (100 μL/well) was added to each well at the end of the incubation and plates were shaken gently for a few seconds. […] Data were analyzed using a four-parameter fit in Microsoft Excel.
SMILES,IC50 [1] [nM],IC50 [2] [nM],IC50 [3] [nM]
"C=CC(=O)NC1(C)CN(c2nc(Nc3cnn(C)c3)c3ncn(C(C)(C)C)c3n2)C1 [Example 8, N-(1-(9-(tert-butyl)-6-((1-methyl-1H-pyrazol-4-yl)amino)-9H-purin-2-yl)-3-methylazetidin-3-yl)acrylamide]",4480,97,37
"C=CC(=O)N[C@@H]1CN(c2nc(Nc3cn(C4CN(C)C4)nc3OC)c3ncn(C)c3n2)C[C@H]1F [Example 5, N-((3R,4R)-4-fluoro-1-(6-((3-methoxy-1-(1-methylazetidin-3-yl)-1H-pyrazol-4-yl)amino)-9-methyl-9H-purin-2-yl)pyrrolidin-3-yl)acrylamide]",546,17,8
"C=CC(=O)Nc1cccc(Oc2nc(Nc3cnn(C)c3)c3ncn(C(C)C)c3n2)c1 [Example 3, N-(3-((9-isopropyl-6-((1-methyl-1H-pyrazol-4-yl)amino)-9H-purin-2-yl)oxy)phenyl)acrylamide trifluoroacetate]",162,20,8
"C=CC(=O)N1C[C@@H]2CN(c3nc(Nc4ccc(N5CCN(C)CC5)cc4)c4ncn(C)c4n3)C[C@@H]2C1 [Example 33, 1-((cis)-5-(9-methyl-6-((4-(4-methylpiperazin-1-yl)phenyl)amino)-9H-purin-2-yl)hexahydropyrrolo[3,4-c]pyrrol-2(1H)-yl)prop-2-en-1-one]",324,18,4
"C=CC(=O)N[C@H]1CCN(c2nc(Nc3ccc(N4CCN(C(C)C)CC4)cc3)c3ncn(C(C)C)c3n2)C1 [Example 36, (S)-N-(1-(9-isopropyl-6-((4-(4-isopropylpiperazin-1-yl)phenyl)amino)-9H-purin-2-yl)pyrrolidin-3-yl)acrylamide]",242,8,9
"C=CC(=O)N[C@H]1CCN(c2nc(Nc3cnn(CCN(C)C)c3)c3ncn(C(C)C)c3n2)C1 [Example 43, (S)-N-(1-(6-((1-(2-(dimethylamino)ethyl)-1H-pyrazol-4-yl)amino)-9-isopropyl-9H -purin-2-yl)pyrrolidin-3-yl)acrylamide]",1480,74,18
"C=CC(=O)N1C[C@@H]2CN(c3nc(Nc4cnn(C)c4C)c4ncn(C(C)C)c4n3)C[C@@H]2C1 [Example 17, 1-((cis)-5-(6-((1,5-dimethyl-1H-pyrazol-4-yl)amino)-9-isopropyl-9H-purin-2-yl)hexahydropyrrolo[3,4-c]pyrrol-2(1H)-yl)prop-2-en-1-one]",≥ 10000,468,2500
"C=CC(=O)N1C[C@@H](F)[C@H](Nc2nc(Nc3ccc(N4CCN(C)CC4)cc3)c3ncn(C)c3n2)C1 (relative stereo) [Example 20, 1-((trans)-3-fluoro-4-((9-methyl-6-((4-(4-methylpiperazin-1-yl)phenyl)amino)-9H -purin-2-yl)amino)pyrrolidin-1-yl)prop-2-en-1-one]",119,11,2
"C=CC(=O)N1C[C@@H]2CN(c3nc(Nc4cnn(C)c4)c4ncn(C(C)C)c4n3)C[C@@H]2C1 [Example 25, 1-((cis)-5-(9-isopropyl-6-((1-methyl-1H-pyrazol-4-yl)amino)-9H-purin-2-yl)hexahydropyrrolo[3,4-c]pyrrol-2(1H)-yl)prop-2-en-1-one]",805,49,6
"C=CC(=O)N[C@@H]1CN(c2nc(Nc3ccc(N4CCN(C)CC4)cc3)c3ncn(C(C)(C)C)c3n2)C[C@H]1F [Example 52, N-((3R,4R)-1-(9-(tert-butyl)-6-((4-(4-methylpiperazin-1-yl)phenyl)amino)-9H-purin-2-yl)-4-fluoropyrrolidin-3-yl)acrylamide]",≥ 10000,742,6
"C=CC(=O)N[C@H]1CCN(c2nc(Nc3ccc(N4CCN(CC)CC4)cc3)c3ncn(C(C)C)c3n2)C1 [Example 40, (S)-N-(1-(6-((4-(4-ethylpiperazin-1-yl)phenyl)amino)-9-isopropyl-9H-purin-2-yl)pyrrolidin-3-yl)acrylamide]",74,8,5
"C=CC(=O)N(C)[C@H]1C[C@H](Nc2nc(Nc3ccc(N4CCN(C)CC4)cc3)c3ncn(C(C)C)c3n2)C1 [Example 28, N-((trans)-3-((9-isopropyl-6-((4-(4-methylpiperazin-1-yl)phenyl)amino)-9H-purin-2-yl)amino)cyclobutyl)-N-methylacrylamide]",723,48,

# Results, then the compound that gave them:
IC50 [1] [nM],IC50 [2] [nM],IC50 [3] [nM],SMILES
425,22,10,"C=CC(=O)N[C@@H]1CN(c2nc(Nc3cn(C4CCN(C)C4)nc3C)c3ncn(CC)c3n2)C[C@H]1F (stereo partly drawn) [Example 80, N-((3R,4R)-1-(9-ethyl-6-((3-methyl-1-(1-methylpyrrolidin-3-yl)-1H-pyrazol-4-yl)amino)-9H-purin-2-yl)-4-fluoropyrrolidin-3-yl)acrylamide]"
504,108,2,"C=CC(=O)NC1(C)CN(c2nc(Nc3cnn(C)c3)c3ncn(CC)c3n2)C1 [Example 56, N-(1-(9-ethyl-6-((1-methyl-1H-pyrazol-4-yl)amino)-9H-purin-2-yl)-3-methylazetidin-3-yl)acrylamide]"
127,8,8,"C=CC(=O)N1C[C@H]2CN(c3nc(Nc4ccc(N5CCN(C)CC5)cc4)c4ncn(C(C)C)c4n3)C[C@]2(OC)C1 (single isomer, unassigned) [Example 64]"
,,9,"C=CC(=O)N[C@@H]1CN(c2nc(Nc3ccc(N4CCC(N(C)C)CC4)cc3OC)c3ncn(C(C)C)c3n2)C[C@H]1F [Example 90, N-((3R,4R)-1-(6-((4-(4-(dimethylamino)piperidin-1-yl)-2-methoxyphenyl)amino)-9-isopropyl-9H-purin-2-yl)-4-fluoropyrrolidin-3-yl)acrylamide]"
394,30,2,"C=CC(=O)N[C@@H]1CN(c2nc(Nc3cn(C)nc3C)c3ncn(CC)c3n2)C[C@H]1F [Example 76, N-((3R,4R)-1-(6-((1,3-dimethyl-1H-pyrazol-4-yl)amino)-9-ethyl-9H-purin-2-yl)-4-fluoropyrrolidin-3-yl)acrylamide]"
3040,89,44,"C=CC(=O)N1CCC[C@@H](Oc2nc(Nc3cnn(C)c3)c3ncn(C(C)C)c3n2)C1 [Example 57, (R)-1-(3((9-isopropyl-6-((1-methyl-1H-pyrazol-4-yl)amino)-9H-purin-2-yl)oxy)piperidin-1-yl)prop-2-en-1-one]"
,,3,"C=CC(=O)N[C@@H]1CN(c2nc(Nc3ccc(N4CCC(N(C)C)CC4)cc3)c3ncn(C(C)C)c3n2)C[C@H]1F [Example 89, N-((3R,4R)-1-(6-((4-(4-(dimethylamino)piperidin-1-yl)phenyl)amino)-9-isopropyl-9H-purin-2-yl)-4-fluoropyrrolidin-3-yl)acrylamide]"
49,5,2,"C=CC(=O)N[C@@H]1CN(c2nc(Nc3cnn(C)c3)c3ncn(C(C)C)c3n2)CC1(F)F [Example 74, (R)—N-(4,4-difluoro-1-(9-isopropyl-6-((1-methyl-1H-pyrazol-4-yl)amino)-9H-purin-2-yl)pyrrolidin-3-yl)acrylamide]"
